Literature values in US9511011B2, “TRPV1 inhibitory peptides and composition for skin-aging protection or wrinkle improvement comprising the same” (SNU R&DB FOUNDATION, priority 2012, dated 2016).

Target: T1, TRPV1 (Homo sapiens, UniProt Q8NER1)
T1 construct: Capsaicin stimulus increases intracellular Ca^2+ level in keratinocytes, which is suppressed by capsazepine; host or cells: keratinocytes (endogenous TRPV1)
Conditions: keratinocytes

T1 sequence (Q8NER1 whole entry): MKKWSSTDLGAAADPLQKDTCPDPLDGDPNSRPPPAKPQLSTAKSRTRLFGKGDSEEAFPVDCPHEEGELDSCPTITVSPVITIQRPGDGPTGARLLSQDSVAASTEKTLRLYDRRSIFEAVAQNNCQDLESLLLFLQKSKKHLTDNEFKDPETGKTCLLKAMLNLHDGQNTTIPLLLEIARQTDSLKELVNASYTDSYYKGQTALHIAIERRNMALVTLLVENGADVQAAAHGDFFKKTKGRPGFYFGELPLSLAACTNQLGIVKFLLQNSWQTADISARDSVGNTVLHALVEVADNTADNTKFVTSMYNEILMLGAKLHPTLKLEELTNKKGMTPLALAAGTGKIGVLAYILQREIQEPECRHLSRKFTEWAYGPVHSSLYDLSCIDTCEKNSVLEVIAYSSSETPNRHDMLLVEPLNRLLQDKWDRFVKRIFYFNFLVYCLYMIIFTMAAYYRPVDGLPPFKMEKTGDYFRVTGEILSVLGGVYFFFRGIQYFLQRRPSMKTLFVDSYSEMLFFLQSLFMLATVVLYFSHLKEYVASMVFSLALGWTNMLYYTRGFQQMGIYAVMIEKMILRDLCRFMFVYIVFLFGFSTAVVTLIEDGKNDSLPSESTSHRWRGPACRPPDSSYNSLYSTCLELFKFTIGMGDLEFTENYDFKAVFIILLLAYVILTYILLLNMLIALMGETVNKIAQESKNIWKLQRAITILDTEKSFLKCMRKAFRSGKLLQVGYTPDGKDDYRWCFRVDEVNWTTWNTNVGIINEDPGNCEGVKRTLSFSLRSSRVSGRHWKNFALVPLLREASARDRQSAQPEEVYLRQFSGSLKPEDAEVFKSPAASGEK

SMILES: Oc1cc2c(cc1O)CN(C(=S)NCCc1ccc(Cl)cc1)CCC2 [capsazepine]
- intracellular Ca2+ level increased by capsaicin stimulus: suppressed
